One experiment deals with T1, Aminopeptidase N (Plasmodium falciparum FcB1/Columbia, UniProt O96935).
T1 sequence (O96935 whole entry): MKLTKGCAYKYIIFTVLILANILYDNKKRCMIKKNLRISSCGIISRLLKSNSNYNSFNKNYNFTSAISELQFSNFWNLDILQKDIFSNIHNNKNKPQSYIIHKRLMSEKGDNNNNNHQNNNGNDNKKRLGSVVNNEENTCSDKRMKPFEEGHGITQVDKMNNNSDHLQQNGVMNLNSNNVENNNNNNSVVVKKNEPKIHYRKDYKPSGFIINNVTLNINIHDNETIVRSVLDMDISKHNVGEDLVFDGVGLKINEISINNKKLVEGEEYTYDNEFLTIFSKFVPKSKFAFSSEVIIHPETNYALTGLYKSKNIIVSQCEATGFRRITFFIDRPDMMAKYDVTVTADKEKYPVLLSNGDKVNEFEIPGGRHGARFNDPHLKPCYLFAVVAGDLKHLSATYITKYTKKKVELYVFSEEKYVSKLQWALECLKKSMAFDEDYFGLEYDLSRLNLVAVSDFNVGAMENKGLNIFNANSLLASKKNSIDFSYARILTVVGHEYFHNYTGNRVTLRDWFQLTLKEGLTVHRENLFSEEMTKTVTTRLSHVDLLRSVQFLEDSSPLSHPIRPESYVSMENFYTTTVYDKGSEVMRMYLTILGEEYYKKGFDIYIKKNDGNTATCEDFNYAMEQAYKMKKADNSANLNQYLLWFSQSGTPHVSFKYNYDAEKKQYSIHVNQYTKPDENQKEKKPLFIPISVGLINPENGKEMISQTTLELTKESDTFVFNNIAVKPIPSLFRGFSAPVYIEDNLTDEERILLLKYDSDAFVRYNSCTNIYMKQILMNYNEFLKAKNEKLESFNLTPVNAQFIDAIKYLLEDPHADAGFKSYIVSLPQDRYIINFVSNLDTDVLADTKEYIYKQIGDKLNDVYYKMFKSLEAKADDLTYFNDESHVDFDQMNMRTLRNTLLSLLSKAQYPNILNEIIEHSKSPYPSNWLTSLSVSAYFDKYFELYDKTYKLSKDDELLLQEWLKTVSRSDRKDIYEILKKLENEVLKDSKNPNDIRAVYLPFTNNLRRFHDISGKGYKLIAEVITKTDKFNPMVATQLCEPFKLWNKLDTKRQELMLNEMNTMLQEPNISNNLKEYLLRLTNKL
The experiment in a line: malaria alanyl aminopeptidase activity blockers – biochemical, fluorogenic H-Leu-NHMec substrate, 1536-well (AID 1445). The arrangement: species or system Plasmodium falciparum 3D7, 3D7.

The next experiment has as its target T2, Leucine aminopeptidase (Plasmodium falciparum 3D7, UniProt Q8IL11).
T2 sequence (Q8IL11 whole entry): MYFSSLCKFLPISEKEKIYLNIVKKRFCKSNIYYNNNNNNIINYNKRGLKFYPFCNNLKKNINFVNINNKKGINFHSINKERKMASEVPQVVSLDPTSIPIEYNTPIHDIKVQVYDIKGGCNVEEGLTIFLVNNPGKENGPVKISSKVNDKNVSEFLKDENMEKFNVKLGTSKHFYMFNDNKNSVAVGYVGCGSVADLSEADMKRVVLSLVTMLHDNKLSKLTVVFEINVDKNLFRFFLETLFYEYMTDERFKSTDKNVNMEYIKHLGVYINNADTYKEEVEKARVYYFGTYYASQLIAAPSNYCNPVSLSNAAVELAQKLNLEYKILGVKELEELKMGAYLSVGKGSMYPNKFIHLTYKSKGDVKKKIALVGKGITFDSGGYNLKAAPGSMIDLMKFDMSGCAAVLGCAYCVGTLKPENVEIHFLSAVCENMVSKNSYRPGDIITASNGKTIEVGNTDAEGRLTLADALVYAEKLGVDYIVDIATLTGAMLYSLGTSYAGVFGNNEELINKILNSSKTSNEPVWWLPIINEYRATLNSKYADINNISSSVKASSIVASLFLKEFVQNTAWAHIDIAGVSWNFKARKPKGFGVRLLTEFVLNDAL
The experiment in a line: P. falciparum M17LAP inhibitors, primary screen, biochemical, fluorogenic H-Leu-NHMec substrate, 1536-well (AID 1619). The format is functional.

For experiment [1], the target named is Voltage-dependent T-type calcium channel subunit alpha-1H (Homo sapiens, UniProt O95180). The format is functional.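 Note: channel activity triggered by adding a high calcium stimulation buffer.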
Experiment [2] addresses T3, Short transient receptor potential channel 4 (Mus musculus, UniProt Q9QUQ5).
T3 sequence (Q9QUQ5 whole entry): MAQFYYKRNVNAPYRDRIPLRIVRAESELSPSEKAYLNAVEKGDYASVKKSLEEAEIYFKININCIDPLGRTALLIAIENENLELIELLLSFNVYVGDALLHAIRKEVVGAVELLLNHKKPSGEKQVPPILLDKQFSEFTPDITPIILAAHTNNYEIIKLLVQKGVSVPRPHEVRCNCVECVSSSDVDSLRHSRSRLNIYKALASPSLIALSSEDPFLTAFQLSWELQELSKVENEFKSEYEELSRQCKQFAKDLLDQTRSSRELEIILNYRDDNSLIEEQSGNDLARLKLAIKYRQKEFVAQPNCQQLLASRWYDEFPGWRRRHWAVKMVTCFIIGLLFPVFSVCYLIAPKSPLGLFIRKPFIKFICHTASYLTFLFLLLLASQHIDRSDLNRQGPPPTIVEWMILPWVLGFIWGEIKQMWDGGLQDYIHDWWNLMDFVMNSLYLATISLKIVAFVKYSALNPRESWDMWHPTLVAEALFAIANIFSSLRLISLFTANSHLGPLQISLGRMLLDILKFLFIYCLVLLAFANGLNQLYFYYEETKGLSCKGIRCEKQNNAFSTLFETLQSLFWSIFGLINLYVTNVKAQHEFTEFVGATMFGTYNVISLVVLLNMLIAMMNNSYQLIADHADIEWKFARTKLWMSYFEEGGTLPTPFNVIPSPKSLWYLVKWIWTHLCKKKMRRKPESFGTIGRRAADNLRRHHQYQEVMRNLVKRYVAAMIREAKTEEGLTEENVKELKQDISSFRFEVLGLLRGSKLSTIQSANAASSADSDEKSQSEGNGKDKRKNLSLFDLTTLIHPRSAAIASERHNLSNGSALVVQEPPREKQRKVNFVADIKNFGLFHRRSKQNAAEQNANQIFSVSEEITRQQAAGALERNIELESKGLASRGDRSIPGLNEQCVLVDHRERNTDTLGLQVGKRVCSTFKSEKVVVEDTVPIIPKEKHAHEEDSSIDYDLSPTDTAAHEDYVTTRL
The experiment in a line: calcium entry via TRPC4 opening agents – cell-based, HEK293 TRPC4/mu-opioid, Fluo-4 calcium, dose response (AID 434937). The format is functional.

The target in the next experiment is T4, Protein RecA (Mycobacterium tuberculosis, UniProt P9WHJ3).
T4 sequence (P9WHJ3 whole entry): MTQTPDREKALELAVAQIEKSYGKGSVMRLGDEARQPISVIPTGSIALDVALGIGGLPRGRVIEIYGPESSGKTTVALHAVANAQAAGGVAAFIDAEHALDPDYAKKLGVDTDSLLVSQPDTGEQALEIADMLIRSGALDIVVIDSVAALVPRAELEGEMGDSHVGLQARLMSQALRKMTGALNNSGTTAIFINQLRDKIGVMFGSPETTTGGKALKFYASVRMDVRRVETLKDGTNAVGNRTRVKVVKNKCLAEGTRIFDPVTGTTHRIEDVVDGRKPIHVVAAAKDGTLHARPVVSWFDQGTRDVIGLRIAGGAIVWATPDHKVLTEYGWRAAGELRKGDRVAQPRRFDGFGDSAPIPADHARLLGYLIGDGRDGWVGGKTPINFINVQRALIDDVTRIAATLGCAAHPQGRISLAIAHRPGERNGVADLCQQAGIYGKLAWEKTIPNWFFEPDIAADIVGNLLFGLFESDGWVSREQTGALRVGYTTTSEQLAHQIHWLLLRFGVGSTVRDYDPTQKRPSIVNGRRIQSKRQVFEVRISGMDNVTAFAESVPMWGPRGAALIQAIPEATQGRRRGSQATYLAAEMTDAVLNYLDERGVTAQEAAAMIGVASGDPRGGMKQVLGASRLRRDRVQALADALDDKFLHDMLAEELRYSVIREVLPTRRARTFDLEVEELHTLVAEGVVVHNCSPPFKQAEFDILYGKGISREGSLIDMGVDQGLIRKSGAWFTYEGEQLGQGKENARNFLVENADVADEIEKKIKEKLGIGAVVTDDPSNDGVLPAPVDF
The experiment in a line: Fluorescence Cell-Free Homogeneous Dose Retest to Identify Inhibitors of RecA-Intein Splicing Activity. [Related pubchem assays (depositor defined):AID2097, AID2223, AID489010, AID492950]. It counts as functional.

A short description of experiment [3]: THP-1 cell cytotoxicity, dose response, cytotoxicity control for non-replicating M. tuberculosis project (AID 489025). It counts as functional.
A short description of experiment [4]: Vero E6 cell cytotoxicity, dose response, cytotoxicity control for non-replicating M. tuberculosis project, secondary assay (AID 492998). The format is functional, VeroE6. The following applies: Vero C1008.
For experiment [5], the target named is Peroxisome proliferator-activated receptor gamma/Nuclear receptor coactivator 1 (Homo sapiens, UniProt P37231). Put plainly: TR-FRET dose response biochemical High Throughput Screening assay for agonists of the steroid receptor coactivator 1 (SRC-1) recruitment by the peroxisome proliferator-activated receptor gamma (PPAR gamma): non-selective agonists. [Related pubchem assays (depositor defined):AID1300, AID1808, AID504735, AID631]. The format is protein assay.

Experiment [6] has as its target Peroxisome proliferator-activated receptor gamma/Nuclear receptor coactivator 2 (Homo sapiens, UniProt P37231). Put plainly: TR-FRET dose response biochemical High Throughput Screening assay for agonists of the steroid receptor coactivator 2 (SRC-2) recruitment by the peroxisome proliferator-activated receptor gamma (PPAR gamma): non-selective agonists. [Related pubchem assays: 1297, 1032 ]. It counts as functional. (In general: TR-FRET usually uses a lanthanide donor and a delayed reading to cut background.)

Experiment [7] addresses Peroxisome proliferator-activated receptor gamma/Nuclear receptor coactivator 3 (Homo sapiens, UniProt P37231). The experiment in a line: TR-FRET dose response biochemical High Throughput Screening assay for agonists of the steroid receptor coactivator 3 (SRC-3) recruitment by the peroxisome proliferator-activated receptor gamma (PPAR gamma): non-selective agonists. [Related pubchem assays: 1301 (Confirmation screen.), 1048 (Primary screen.)]. It counts as functional.

A further experiment can be described thus: cells. The format is functional.

These results are taken from ChEMBL document CHEMBL1201862, “PubChem BioAssay data set” (2004).

The source made the active and inactive calls.

Voltage-dependent T-type calcium channel subunit alpha-1H, sequence (O95180 whole entry): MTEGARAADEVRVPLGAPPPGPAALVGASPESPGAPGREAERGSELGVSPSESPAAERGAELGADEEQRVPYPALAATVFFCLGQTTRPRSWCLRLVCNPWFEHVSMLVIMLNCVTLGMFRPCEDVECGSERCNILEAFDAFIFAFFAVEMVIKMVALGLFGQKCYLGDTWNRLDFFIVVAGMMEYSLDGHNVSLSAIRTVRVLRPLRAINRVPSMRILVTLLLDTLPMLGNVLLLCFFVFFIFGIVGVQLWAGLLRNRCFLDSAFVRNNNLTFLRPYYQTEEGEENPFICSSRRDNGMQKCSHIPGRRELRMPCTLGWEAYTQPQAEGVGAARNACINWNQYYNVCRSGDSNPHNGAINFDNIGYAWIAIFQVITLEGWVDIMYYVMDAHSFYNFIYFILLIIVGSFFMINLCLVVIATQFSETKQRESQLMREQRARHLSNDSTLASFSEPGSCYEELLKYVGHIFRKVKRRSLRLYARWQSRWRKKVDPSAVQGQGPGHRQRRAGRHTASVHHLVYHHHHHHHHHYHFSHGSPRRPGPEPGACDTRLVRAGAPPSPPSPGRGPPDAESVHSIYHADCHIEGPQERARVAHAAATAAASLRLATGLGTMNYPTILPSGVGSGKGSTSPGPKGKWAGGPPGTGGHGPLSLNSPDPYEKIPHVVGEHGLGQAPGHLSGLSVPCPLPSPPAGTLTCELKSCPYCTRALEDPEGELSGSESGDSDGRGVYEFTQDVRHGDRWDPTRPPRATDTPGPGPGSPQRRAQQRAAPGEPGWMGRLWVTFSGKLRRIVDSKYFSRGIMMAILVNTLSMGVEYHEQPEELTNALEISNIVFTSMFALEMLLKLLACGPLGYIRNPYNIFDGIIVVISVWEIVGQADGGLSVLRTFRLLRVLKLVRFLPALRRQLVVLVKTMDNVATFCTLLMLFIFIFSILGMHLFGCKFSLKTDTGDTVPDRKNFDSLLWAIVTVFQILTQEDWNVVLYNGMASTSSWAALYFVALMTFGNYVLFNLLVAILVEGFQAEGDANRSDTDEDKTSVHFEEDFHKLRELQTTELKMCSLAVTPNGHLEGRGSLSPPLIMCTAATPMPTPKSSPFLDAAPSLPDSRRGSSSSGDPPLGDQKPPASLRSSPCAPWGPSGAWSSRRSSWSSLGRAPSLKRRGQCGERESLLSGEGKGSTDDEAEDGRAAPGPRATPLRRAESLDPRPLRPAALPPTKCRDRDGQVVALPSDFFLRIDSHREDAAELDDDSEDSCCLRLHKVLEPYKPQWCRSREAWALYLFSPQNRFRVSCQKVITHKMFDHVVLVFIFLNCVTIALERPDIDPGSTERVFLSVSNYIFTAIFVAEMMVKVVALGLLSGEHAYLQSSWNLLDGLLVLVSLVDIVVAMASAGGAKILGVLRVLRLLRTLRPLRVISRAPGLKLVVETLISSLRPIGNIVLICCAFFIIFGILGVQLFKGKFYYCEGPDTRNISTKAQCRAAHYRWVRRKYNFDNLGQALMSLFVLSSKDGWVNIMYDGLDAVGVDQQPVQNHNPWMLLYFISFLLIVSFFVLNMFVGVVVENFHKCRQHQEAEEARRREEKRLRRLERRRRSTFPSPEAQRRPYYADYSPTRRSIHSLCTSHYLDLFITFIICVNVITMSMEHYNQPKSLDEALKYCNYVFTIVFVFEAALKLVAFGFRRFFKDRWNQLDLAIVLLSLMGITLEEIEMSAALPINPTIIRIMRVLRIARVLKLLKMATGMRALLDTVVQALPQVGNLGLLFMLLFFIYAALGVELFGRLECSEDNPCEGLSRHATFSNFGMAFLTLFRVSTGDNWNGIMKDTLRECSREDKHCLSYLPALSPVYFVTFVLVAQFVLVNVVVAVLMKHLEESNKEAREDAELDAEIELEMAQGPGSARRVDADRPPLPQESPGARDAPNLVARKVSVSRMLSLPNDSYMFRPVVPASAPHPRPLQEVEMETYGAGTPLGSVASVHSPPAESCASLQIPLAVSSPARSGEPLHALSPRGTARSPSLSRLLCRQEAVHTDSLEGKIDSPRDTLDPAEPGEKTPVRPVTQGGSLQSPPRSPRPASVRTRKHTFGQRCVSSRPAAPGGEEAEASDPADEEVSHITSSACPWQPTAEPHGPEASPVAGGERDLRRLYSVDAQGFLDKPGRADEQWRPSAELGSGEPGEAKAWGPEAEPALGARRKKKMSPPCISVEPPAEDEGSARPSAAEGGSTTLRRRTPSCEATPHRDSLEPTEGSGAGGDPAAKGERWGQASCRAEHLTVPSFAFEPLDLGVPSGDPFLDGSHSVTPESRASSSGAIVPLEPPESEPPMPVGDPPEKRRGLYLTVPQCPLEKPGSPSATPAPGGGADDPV
Peroxisome proliferator-activated receptor gamma/Nuclear receptor coactivator 1, sequence (P37231 whole entry): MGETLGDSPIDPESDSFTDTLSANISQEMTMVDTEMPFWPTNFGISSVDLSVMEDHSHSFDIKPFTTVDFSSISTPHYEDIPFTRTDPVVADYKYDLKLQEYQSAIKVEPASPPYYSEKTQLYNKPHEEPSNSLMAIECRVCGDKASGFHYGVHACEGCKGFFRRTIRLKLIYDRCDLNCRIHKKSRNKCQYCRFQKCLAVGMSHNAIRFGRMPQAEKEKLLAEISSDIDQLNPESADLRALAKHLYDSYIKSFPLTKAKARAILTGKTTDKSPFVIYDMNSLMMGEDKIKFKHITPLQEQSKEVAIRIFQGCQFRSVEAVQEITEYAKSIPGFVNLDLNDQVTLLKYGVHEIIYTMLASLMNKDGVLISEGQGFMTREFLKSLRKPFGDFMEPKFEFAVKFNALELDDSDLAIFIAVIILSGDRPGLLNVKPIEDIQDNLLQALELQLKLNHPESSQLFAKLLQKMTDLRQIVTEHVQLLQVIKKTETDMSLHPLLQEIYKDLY
Peroxisome proliferator-activated receptor gamma/Nuclear receptor coactivator 1, sequence (Q15788 whole entry, further chain): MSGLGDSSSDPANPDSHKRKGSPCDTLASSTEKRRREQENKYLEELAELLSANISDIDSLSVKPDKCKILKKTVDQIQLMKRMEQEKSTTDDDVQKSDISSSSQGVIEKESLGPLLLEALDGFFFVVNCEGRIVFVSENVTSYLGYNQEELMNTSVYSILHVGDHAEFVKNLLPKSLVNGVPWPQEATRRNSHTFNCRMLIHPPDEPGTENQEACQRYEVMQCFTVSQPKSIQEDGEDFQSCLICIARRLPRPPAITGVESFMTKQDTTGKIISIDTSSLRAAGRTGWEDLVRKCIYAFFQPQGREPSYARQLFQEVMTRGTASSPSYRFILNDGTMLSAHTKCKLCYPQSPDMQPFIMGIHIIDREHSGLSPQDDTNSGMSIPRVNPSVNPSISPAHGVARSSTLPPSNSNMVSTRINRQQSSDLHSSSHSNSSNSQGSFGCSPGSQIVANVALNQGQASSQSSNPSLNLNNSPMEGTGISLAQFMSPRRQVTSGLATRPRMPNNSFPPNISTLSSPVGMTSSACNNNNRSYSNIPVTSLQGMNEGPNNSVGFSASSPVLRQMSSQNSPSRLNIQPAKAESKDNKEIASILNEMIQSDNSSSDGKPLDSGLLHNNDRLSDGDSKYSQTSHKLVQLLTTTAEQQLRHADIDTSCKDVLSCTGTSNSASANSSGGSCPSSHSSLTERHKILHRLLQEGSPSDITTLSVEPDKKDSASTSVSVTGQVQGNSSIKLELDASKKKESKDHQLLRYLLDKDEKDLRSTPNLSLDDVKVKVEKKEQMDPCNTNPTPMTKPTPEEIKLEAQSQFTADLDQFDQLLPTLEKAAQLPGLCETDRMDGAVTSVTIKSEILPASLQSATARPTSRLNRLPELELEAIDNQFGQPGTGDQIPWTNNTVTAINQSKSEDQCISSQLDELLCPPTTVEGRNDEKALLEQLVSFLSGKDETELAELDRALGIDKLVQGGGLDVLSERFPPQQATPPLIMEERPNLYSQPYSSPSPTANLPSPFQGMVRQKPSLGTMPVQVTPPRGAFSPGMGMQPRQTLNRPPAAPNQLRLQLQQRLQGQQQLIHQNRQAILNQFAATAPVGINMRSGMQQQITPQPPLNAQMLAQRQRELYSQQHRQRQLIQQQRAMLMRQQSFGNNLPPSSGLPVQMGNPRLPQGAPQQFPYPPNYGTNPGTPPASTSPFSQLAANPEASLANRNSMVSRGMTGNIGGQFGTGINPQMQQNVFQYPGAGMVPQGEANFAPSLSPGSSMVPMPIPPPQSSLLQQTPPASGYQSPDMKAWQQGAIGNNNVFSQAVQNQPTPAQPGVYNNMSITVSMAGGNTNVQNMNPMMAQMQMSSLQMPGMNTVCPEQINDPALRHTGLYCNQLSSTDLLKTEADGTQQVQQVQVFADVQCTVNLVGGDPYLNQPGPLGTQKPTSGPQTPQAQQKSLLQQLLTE

Usually IC50 stands for the concentration at which inhibition is half-maximal. For `CCC(C)(C)NC(=O)CN(Cc1ccc2c(c1)OCO2)C(=O)CCC(=O)Nc1nccs1`, the 50% inhibitory concentration (IC50) on Aminopeptidase N was 87.6 µM (active).
For `O=C(CN1C(=O)C2CCCCN2C(=O)c2ccccc21)N1CCCc2ccccc21` (centres undefined), the IC50 on Aminopeptidase N is 103 µM (active).
Regarding `CCc1cc2cc3c(cc2nc1SCC(=O)Nc1cc(OC)c(OC)cc1C(=O)O)OCO3`, the half-maximal inhibitory concentration (IC50) on Leucine aminopeptidase is < 1 µM (active); on Aminopeptidase N, 76 µM (active).
As a reminder, the EC50 is the concentration giving half of the maximal effect. In the case of `Cc1cccc(N2CCN(C(=O)C(Cc3ccccc3)n3cccc3)CC2)c1C` (centres undefined), in [1], the concentration giving a half-maximal response (EC50) is 8.08 µM (active).
Take `O=C(CNS(=O)(=O)c1ccc2ccccc2c1)NCCc1ccccn1`: the EC50 in experiment [2] is 9.44 µM (active).
The term CC50 denotes the concentration that lowers cell viability or growth by half. As to `O=[N+]([O-])c1cncc([N+](=O)[O-])c1Nc1cccc(O)c1`, on Protein RecA, the EC50 is 3.28 µM (active). For the same compound, the CC50 in [3] is 27 µM (active); in experiment [4], 15.7 µM (active).
Turning to `O=C(Nc1ccccc1C(F)(F)F)c1ccc(CN2CCC(Cc3ccccc3)CC2)cc1`, in experiment [1], the concentration for a half-maximal effect (EC50) is 0.227 µM (active).
For the compound `COc1ccc(C)c2sc(NC(=O)CCS(=O)(=O)c3ccccc3)nc12`, the results for the CC50 in experiment [3] and in experiment [4] were 23.1 µM (active) and > 20 µM (active), respectively.
For the compound `COc1cc(OC)cc(C(=O)NC2CCCN(Cc3ccc(Cl)cc3)C2)c1` (centres undefined), the EC50 in experiment [2] is 5.96 µM (active).
In the case of `CCn1c(=O)cc(SCC(=O)N2CCN(c3ccccn3)CC2)c2ccccc21`, the EC50 in experiment [5] is > 79.4 µM (inactive); in [6] it was > 79.4 µM (not active); in experiment [7], > 79.4 µM (not active).
For `Cc1ccc(Cn2c(SCCN3CCCCC3)nc3c2c(=O)n(C)c(=O)n3C)cc1`, the concentration for a half-maximal effect (EC50) in experiment [2] is 11.9 µM (active).
Take `COc1cc(NC(=O)C2COc3ccccc3O2)c(OC)cc1Cl` (centres undefined): in experiment [1], the 50% effective concentration (EC50) was 8.09 µM (active).
As to `CCc1cc2cc(C(=O)Nc3ccc(F)cc3)sc2s1`, the EC50 is > 79.4 µM (inactive) in experiment [5], 57.1 µM (not active) in experiment [6] and > 79.4 µM (not active) in experiment [7].
On to `Cc1ccc(-c2ccc(/C=N/NC(=O)CN3CCOCC3)o2)cc1[N+](=O)[O-]`, for which the half-inhibitory concentration (IC50) in “cells” is 22.5 µM (active). Also, the cytotoxic concentration (CC50) in experiment [3] was > 40 µM (active).
Take `Cn1c(N2CCNCC2)nc2ccccc21`: in experiment [2], the EC50 is 0.149 µM (active).
